Measurements taken from patent US9840716B2, “Resveratrol-enriched rice and the use thereof” (REPUBLIC OF KOREA (MANAGEMENT: RURAL DEVELOPMENT …, priority 2012, dated 2017).

Experiments:
yeasts = conditions: on average, when resveratrol is added; cited from earlier work
[1] = test system: animal models (mice) induced with a metabolic disease by a long-term high fat diet; test: Comparative measurement of blood glucose in animal models induced with a metabolic disease; type: in vivo, C57BL/6 inbred mice; conditions: 12 weeks of feeding, compared with control or comparison groups
Source text: The effects of rice containing resveratrol of the present invention at high concentration on a metabolic disease were examined using animal models (mice) induced with a metabolic disease by a long-term high fat diet. Particularly, each of 15 C57BL/6 inbred mice was fed with a high fat diet for 12 weeks, thereby establishing models induced with a metabolic disease such as diabetes, obesity, hyperlipidemia, hypercholesterolemia, etc. Next, the feed produced from seeds of transformed rice or Dongjin rice was distributed to animals for 12 weeks. After 12 weeks of distribution, via blood sampling from a tail vein once every 3 weeks, blood glucose, cholesterol, etc., were analyzed, thereby examining the effects of resveratrol-enriched transgenic rice and transformed rice in animal models induced with a metabolic disease. As described above, after feeding feed for experimental animals, in which carbohydrate components were replaced with Dongjin rice and resveratrol-enriched transgenic rice to mice induced with a metabolic disease, the level of blood glucose was measured (FIG. 2). […] As described above, after feeding the feed, in which carbohydrate components were replaced with Dongjin rice and resveratrol-enriched transgenic rice, to mice with an induced metabolic disease, the level of blood glucose was measured (FIG. 5).

## Oc1ccc(C=Cc2cc(O)cc(O)c2)cc1 [resveratrol]
yeasts
  increase of the life span of yeasts: 70%
[1]
  blood glucose level (result in words): did not show a remarkable difference
